From patent publication US20230042961A1, “FUNGICIDAL COMPOUNDS AND MIXTURES FOR FUNGAL CONTROL IN CEREALS” (Dow AgroSciences LLC, priority 2017, published 2023)

Columns and labels:
[1] = test system: Puccinia recondita (PUCCRT); test: Field assessment of brown rust of wheat (PUCCRT), 2 field trials; assay type: in vivo, Puccinia recondita on wheat (TRZAW); details: relative AUDPC, average of 2 field trials, with Agnique BP-420
Source text: (§1) Treatments consisted of the compound of Formula I and the compound of Formula II either using individually or as a two-way mixture with the compound of Formula I. The compound of Formula I was applied with Agnique BP-420 (50% w/w at 0.3% v/v) at 75 and 150 g ai/ha and the compound of Formula II was applied with Agnique BP-420 (50% w/w at 0.3% v/v) at 20, 40, and 60 g ai/ha. Commercial standards used in the studies were Fluxapyroxad (Imtrex), applied at 100 g ai/ha, and Metconazole+Fluxapyroxad (Librax), applied at 161 g ai/ha.
Field Assessment of Puccinia recondita (PUCCRT) in Wheat:
Fungicidal treatment containing the compound of Formula I and the compound of Formula II, either individually or as a two mixture, were assessed against brown rust of wheat (PUCCRT) in two separate field trials. In the first trial, fungicidal treatments were applied at B37-39 (protectant, approximately 0% infection at application) growth stage of wheat (TRZAW, MV Vanek variety) under natural infection of brown rust. The treatment was part of an experimental trial designed as a randomized complete block with four replications and a plot of approximately 2×3 m. Fungicidal treatments were applied at a water volume of 200 L/ha, using a backpack plot sprayer with a TEEJET QJ90-2XTT110 015 Nozzle.
In the second trial, fungicidal treatments containing the compound of Formula I and the compound of Formula II, either individually or as a two way mixture, were applied at B33 (curative, approximately 6.6% infection at application) growth stage of wheat (TRZAW, Miradoux variety) under natural infection of brown rust. The treatments were part of an experimental trial designed as a randomized complete block with four replications and a plot of approximately 2×3 m. Fungicidal treatments were applied at a water volume of 200 L/ha, using a backpack plot sprayer with a HARDI MD110-02 Nozzle.
(§2) Disease severity (percentage of visual diseased foliage on whole plot or leaves) in both field trials was assessed at 5 weeks after application and was recorded following EPPO PP1/26 guideline prescriptions. Area under the disease progress curve (AUDPC) was calculated for each plot in both trials using the sets of recorded severity data. Relative AUDPC (% control based on AUDPC) was calculated as percent of the nontreated control. Final results for the control of brown rust of wheat by the compound of Formula I, the compound of Formula II, and mixtures are reported as an average of the relative AUDPC calculated over both field trials. Statistical analysis was done according to ANOVA and Tukey's test (p=0.10).

[2] = test system: Puccinia striiformis (PUCCST); test: Field assessment of yellow rust of wheat (PUCCST), 2 field trials; assay type: in vivo, Puccinia striiformis on wheat (TRZAW); details: relative AUDPC, average of 2 field trials, with Agnique BP-420
Source text: as §1
Field Assessment of Puccinia striiformis (PUCCST) in Wheat:
Fungicidal treatments containing the compound of Formula I and the compound of Formula II, either individually or as a two way mixture, were assessed against yellow rust of wheat (PUCCST) in two separate field trials. In the first trial, fungicidal treatments were applied twice at B31-32 (early curative, 4% infection at application on L3) and B39 (16.3% infection at application on L3) growth stages of winter wheat (TRZAW, Fairplay variety) under naturally occurring infection with PUCCST. The treatments were part of an experimental trial designed as a randomized complete block with four replications and a plot of approximately 1×6 m. Treatments were applied at water volume of 200 L/ha, using a backpack plot sprayer (BKPCKENG, F110-015 Hardi (3) Flat fan nozzle) and pressurized at 200 kPa.
In the second trial, fungicidal treatments containing the compound of Formula I and the compound of Formula II, either individually or as a two way mixture, were applied twice at B32 (protectant, 0% infection on L3 at application) and B37 (early curative, 20% infection on L3 at application) growth stages of wheat (TRZAW, Torch variety) under naturally occurring infection with PUCCST. The treatment was part of an experimental trial designed as a randomized complete block with four replications and a plot of approximately 2×4 m. Treatments were applied at water volume of 200 L/ha, using a backpack precision plot sprayer (BKCKAIR, F110-03 Hypro (4) Flat fan nozzle) and pressurized at 210 kPa.
as §2, with “4-7” for “5”, “yellow” for “brown”

[3] = test system: Zymoseptoria tritici (SEPTTR); test: Field assessment of leaf blotch of wheat (SEPTTR), 3 field trials; assay type: in vivo, Zymoseptoria tritici on winter wheat (TRZAW); details: relative AUDPC, average of 3 field trials, with Agnique BP-420
Source text: as §1
Field Assessment of Zymoseptoria tritici (SEPTTR) in Wheat:
Fungicidal treatments containing the compound of Formula I and the compound of Formula II, either individually or as a two way mixture, were assessed against leaf spot of wheat (SEPTTR) in three separate field trials. In the first trial, fungicidal treatments were applied at B37 (curative, 1.8% infection at application on L4) growth stage of winter wheat (TRZAW, Sy moisson variety) under naturally occurring infection with SEPTTR. The treatments were part of an experimental trial designed as a randomized complete block with four replications and a plot of approximately 2×4 m. Treatments were applied at water volume of 200 L/ha, using a backpack plot sprayer (BKPCKAIR, FLAT FAN nozzle) and pressurized at 250 kPa.
In the second trial, fungicidal treatments were applied twice at B32 (curative, 15% infection at application on L5) and B39 (16% infection at application on L4) growth stages of winter wheat (TRZAW, Riband variety) under naturally occurring infection with SEPTTR. The treatments were part of an experimental trial designed as a randomized complete block with four replications and a plot of approximately 1.5×2 m. Treatments were applied at water volume of 200 L/ha, using a backpack plot sprayer (BKPCKAIR, Flat fan nozzle) and pressurized at 180 kPa.
In the final trial, fungicidal treatments were applied twice at B32 (protective, 15% infection at application on L6) and B37 (12% infection at application on L5) growth stages of winter wheat (TRZAW, Smaragd variety) under naturally occurring infection with SEPTTR. […]
as §2, with “at 7-9” for “at 5”, “of leaf spot” for “of brown rust”, “over all three” for “over both”, “trials. […]” for “trials. Statistical analysis was done according to ANOVA and Tukey's test (p=0.10).”

Structure (SMILES)	PUCCRT % Control ([1]; 20 g ai/ha) [%]	PUCCRT % Control ([1]; 40 g ai/ha) [%]	PUCCST % Control ([2]; 40 g ai/ha) [%]	PUCCST % Control ([2]; 60 g ai/ha) [%]	SEPTTR % Control ([3]; 20 g ai/ha) [%]	SEPTTR % Control ([3]; 40 g ai/ha) [%]	PUCCRT % Control ([1]; 75 g ai/ha) [%]	PUCCRT % Control ([1]; 150 g ai/ha) [%]	PUCCST % Control ([2]; 75 g ai/ha) [%]	PUCCST % Control ([2]; 150 g ai/ha) [%]	SEPTTR % Control ([3]; 75 g ai/ha) [%]	SEPTTR % Control ([3]; 150 g ai/ha) [%]
COc1ccnc(C(=O)N[C@@H](C)C(=O)O[C@@H](C)C(c2ccc(F)cc2)c2ccc(F)cc2)c1OC(C)=O [Compound II, (S)-1,1-bis(4-fluorophenyl)propan-2-yl (3-acetoxy-4-methoxypicolinoyl)-L-alaninate]	45.4	64.7	50.6	56.2	35.1	52.2	–	–	–	–	–	–
N#Cc1ccc(Oc2ccc(C(F)(F)C(O)(Cn3nc[nH]c3=S)c3ccc(F)cc3F)nc2)cc1 (stereo not drawn) [Compound I, 4-((6-(2-(2,4-difluorophenyl)-1,1-difluoro-2-hydroxy-3-(5-thioxo-4,5-dihydro-1H-1,2,4-triazol-1-yl)propyl)pyridin-3-yl)oxy)benzonitrile]	–	–	–	–	–	–	79.7	89.0	83.4	87.7	50.3	73.8
